Measurements taken from patent US9233979B2, “Compounds that are ERK inhibitors” (Merck Sharp & Dohme Corp., priority 2012, dated 2016).

biological target: phosphorylated active hERK2 enzyme (Homo sapiens (Human), UniProt P28482); experiment: Active Human ERK2 (hERK2) Activity Assay (IMAP-FP); assay type: biochemical; settings: Table 5, 0.5 nM hERK2, 30 μM ATP, 10 point titration, read-out: AERK2 IC50
Summary of the method: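 IMAP detection beads in buffer with 24 mM NaCl stopped the reaction, and fluorescence polarization was read after 60 min binding.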

phosphorylated active hERK2 enzyme, sequence (P28482 whole entry): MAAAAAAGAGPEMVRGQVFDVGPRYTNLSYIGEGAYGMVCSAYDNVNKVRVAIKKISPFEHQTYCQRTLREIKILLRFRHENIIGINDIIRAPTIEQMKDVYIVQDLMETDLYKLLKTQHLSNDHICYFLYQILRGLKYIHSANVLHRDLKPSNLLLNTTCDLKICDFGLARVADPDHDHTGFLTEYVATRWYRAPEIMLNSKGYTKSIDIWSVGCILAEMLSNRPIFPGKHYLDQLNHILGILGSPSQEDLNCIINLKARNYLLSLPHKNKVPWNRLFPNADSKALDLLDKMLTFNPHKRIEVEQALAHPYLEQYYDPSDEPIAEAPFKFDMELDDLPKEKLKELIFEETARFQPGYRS

Row | IC50 [nM] | SMILES
1 | 4.78 | C[C@@H](NC(=O)Nc1cc2[nH]nc(N3CCC3)c2cn1)c1ccccc1 [Example 25, 1-(3-azetidin-1-yl-1H-pyrazolo[4,3-c]pyridin-6-yl)-3-[(1R)-1-phenylethyl]urea]

same assay, conditions: Table 6, 0.5 nM hERK2, 30 μM ATP, 10 point titration, read-out: AERK2 IC50

Row | SMILES | IC50 [nM]
2 | C[C@@H](NC(=O)Nc1cc2[nH]nc(NC(=O)CN(C)C)c2cn1)c1ccccc1 [Example 208] | 27.8
3 | CCNc1n[nH]c2cc(NC(=O)NCc3ncccc3F)ncc12 [Example 279, 1-[3-(ethylamino)-1H-pyrazolo[4,3-c]pyridin-6-yl]-3-[(3-fluoropyridin-2-yl)methyl]urea] | 63.4
4 | CCNc1n[nH]c2cc(NC(=O)NC(C)c3cc(C)ccn3)ncc12 (stereo not drawn) [Example 281, 1-[3-(ethylamino)-1H-pyrazolo[4,3-c]pyridin-6-yl]-3-[1-(4-methyl-pyridin-2-yl)-ethyl]urea] | 98.3
5 | COCCOC(=O)Nc1n[nH]c2cc(NC(=O)N[C@H](C)c3ccccc3)ncc12 [Example 221, 2-methoxyethyl [6-({[(1R)-1-phenyl-ethyl]carbamoyl}-amino)-1H-pyrazolo[4,3-c]-pyridin-3-yl]-carbamate] | 6.6
6 | CN(C)C[C@H](NC(=O)Nc1cc2[nH]nc(N)c2cn1)c1ccccc1 [Example 263, 1-(3-amino-1H-pyrazolo[4,3-c]-pyridin-6-yl)-3-[(1R)-2-(dimethylamino)-1-phenylethyl]urea] | 127
7 | Cc1cc([C@@H](C)NC(=O)Nc2cc3[nH]nc(N)c3cn2)ccc1Cl [Example 276, 1-(3-amino-1H-pyrazolo[4,3-c]pyridin-6-yl)-3-[(1R)-1-(4-chloro-3-methylphenyl)-ethyl]urea] | 2.3
8 | CC(CCl)Nc1n[nH]c2cc(NC(=O)N[C@H](C)c3ccccc3)ncc12 (stereo partly drawn) [Example 197, 1-{3-[(2-chloro-1-methylethyl)amino]-1H-pyrazolo[4,3-c]pyridin-6-yl}-3-[(1R)-1-phenylethyl]urea] | 3.1
9 | COC[C@@H](NC(=O)Nc1cc2[nH]nc(N3CCc4ncsc4C3)c2cn1)c1ccccc1 [Example 127, 1-[3-(6,7-dihydro[1,3]-thiazolo[5,4-c]-pyridin-5(4H)-yl)-1H-pyrazolo[4,3-c]pyridin-6-yl]-3-[(1S)-2-methoxy-1-phenylethyl]urea] | 0.3
10 | Cc1nnsc1C(=O)Nc1n[nH]c2cc(NC(=O)N[C@H](C)c3ccccc3)ncc12 [Example 200, 4-methyl-N-[6-({[(1R)-1-phenylethyl]-carbamoyl}amino)-1H-pyrazolo[4,3-c]pyridin-3-yl]-1,2,3-thiadiazole-5-carboxamide] | 1.1
11 | CCNc1n[nH]c2cc(NC(=O)NC3COc4ccccc43)ncc12 (stereo not drawn) [Example 235, 1-(2,3-dihydro-1-benzofuran-3-yl)-3-[3-(ethylamino)-1H-pyrazolo[4,3-c]pyridin-6-yl]urea] | 334
12 | C[C@@H](NC(=O)Nc1cc2[nH]nc(N3CC(CO)C3)c2cn1)c1ccccc1 [Example 83, 1-{3-[3-(hydroxyl-methyl)azetidin-1-yl]-1H-pyrazolo[4,3-c]-pyridin-6-yl}-3-[(1R)-1-phenylethyl]-urea] | 2.7
13 | COc1cccc(F)c1CNC(=O)Nc1cc2[nH]nc(N)c2cn1 [Example 269, 1-(3-amino-1H-pyrazolo[4,3-c]pyridin-6-yl)-3-(2-fluoro-6-methoxy-benzyl)urea] | 3.3
14 | CCNc1n[nH]c2cc(NC(=O)NCc3c(F)cccc3Cl)ncc12 [Example 244, 1-(2-chloro-6-fluorobenzyl)-3-[3-(ethylamino)-1H-pyrazolo[4,3-c]-pyridin-6-yl]urea] | 10.8
15 | CNc1n[nH]c2cc(NC(=O)N[C@H](c3ccccc3)[C@@H]3CCCO3)ncc12 [Example 146, 1-(3-(methylamino)-1H-pyrazolo[4,3-c]pyridin-6-yl)-3-((R)-phenyl((S)-tetrahydrofuran-2-yl)methyl)urea] | 115
16 | Nc1n[nH]c2cc(NC(=O)NC3CNc4ccccc4C3)ncc12 (stereo not drawn) [Example 256, 1-(3-amino-1H-pyrazolo[4,3-c]pyridin-6-yl)-3-(1,2,3,4-tetrahydro-quinolin-3-yl)urea] | 37.5
17 | CCNc1n[nH]c2cc(NC(=O)NCC(C)c3ccccc3)ncc12 (stereo not drawn) [Example 226, 1-[3-(ethylamino)-1H-pyrazolo[4,3-c]pyridin-6-yl]-3-(2-phenylpropyl)-urea] | 17
18 | C[C@@H](NC(=O)Nc1cc2[nH]nc(NCC3CC(C(C)(C)O)C3)c2cn1)c1ccccc1 (stereo partly drawn) [Example 177, 1-[3-({[3-(1-hydroxy-1-methyl-ethyl)cyclobutyl]-methyl}amino)-1H-pyrazolo[4,3-c]pyridin-6-yl]-3-[(1R)-1-phenylethyl]urea] | 12
19 | C[C@@H](NC(=O)Nc1cc2[nH]nc(NC3CNC3)c2cn1)c1ccccc1 [Example 168, 1-[3-(azetidin-3-ylamino)-1H-pyrazolo[4,3-c]-pyridin-6-yl]-3-[(1R)-1-phenylethyl]urea] | 31.7
20 | CC(C)(O)[C@@H](NC(=O)Nc1cc2[nH]nc(N3CCc4ncsc4C3)c2cn1)c1ccc(F)cc1 [Example 125, 1-[3-(6,7-dihydro[1,3]thiazolo-[5,4-c]pyridin-5(4H)-yl)-1H-pyrazolo[4,3-c]pyridin-6-yl]-3-[(1S)-1-(4-fluorophenyl)-2-hydroxy-2-methylpropyl]urea] | 0.4
21 | O=C(Nc1cc2[nH]nc(Nc3ccccc3Cl)c2cn1)N[C@@H]1CCCOc2ccccc21 [Example 119, 1-{3-[(2-chlorophenyl)-amino]-1H-pyrazolo[4,3-c]pyridin-6-yl}-3-[(5R)-2,3,4,5-tetrahydro-1-benzoxepin-5-yl]urea] | 60.1

Results, then the molecule that gave them:

Row | IC50 [nM] | SMILES
22 | 15.3 | C[C@@H](NC(=O)Nc1cc2[nH]nc(NC(=O)OC3CCOC3)c2cn1)c1ccc(F)cc1 (stereo partly drawn) [Example 401, tetrahydrofuran-3-yl [6-({[(1R)-1-(4-fluorophenyl)ethyl]carbamoyl}amino)-1H-pyrazolo[4,3-c]pyridin-3-yl]-carbamate]
23 | 19.7 | C[C@@H](NC(=O)Nc1cc2[nH]nc(NC(=O)OC3CCOCC3)c2cn1)c1ccc(F)cc1 [Example 399, tetrahydro-2H-pyran-4-yl [6-({[(1R)-1-(4-fluorophenyl)ethyl]carbamoyl}amino)-1H-pyrazolo[4,3-c]pyridin-3-yl]-carbamate]
24 | 0.7 | CC(C)(O)[C@@H](NC(=O)Nc1cc2[nH]nc(N)c2cn1)c1ccc(F)cc1 [Example 443, 1-(3-amino-1H-pyrazolo[4,3-c]-pyridin-6-yl)-3-[(1S)-1-(4-fluorophenyl)-2-hydroxy-2-methylpropyl]urea]
25 | 1 | COC(=O)Nc1n[nH]c2cc(NC(=O)N[C@H](C)c3cccc(Cl)c3)ncc12 [Example 287, methyl [6-({[(1R)-1-(3-chlorophenyl)-ethyl]carbamoyl}-amino)-1H-pyrazolo[4,3-c]-pyridin-3-yl}-carbamate]
26 | 4.4 | O=C(Nc1cc2[nH]nc(NC(=O)N3CC(F)(F)C3)c2cn1)N[C@@H]1CCCOc2ccccc21 [Example 397, 3,3-difluoro-N-(6-{[(5R)-2,3,4,5-tetrahydro-1-benzoxepin-5-yl-carbamoyl]amino}-1H-pyrazolo[4,3-c]pyridin-3-yl)-azetidine-1-carboxamide]
27 | 1.4 | CSC[C@@H](NC(=O)Nc1cc2[nH]nc(N)c2cn1)c1ccccc1 [Example 357, 1-(3-amino-1H-pyrazolo[4,3-c]-pyridin-6-yl)-3-[(1S)-2-(methylsulfanyl)-1-phenylethyl]urea]
28 | 1.1 | CC(C)OC(=O)Nc1n[nH]c2cc(NC(=O)N[C@@H](c3ccc(F)cc3)C(C)(C)O)ncc12 [Example 403, 1-methylethyl [6-({[(1S)-1-(4-fluorophenyl)-2-hydroxy-2-methyl-propyl]carbamoyl}amino)-1H-pyrazolo[4,3-c]-pyridin-3-yl]-carbamate]
29 | 0.7 | CC(Nc1n[nH]c2cc(NC(=O)N[C@@H](c3ccccc3)C(C)(C)O)ncc12)C(F)(F)F (stereo partly drawn) [Example 434, 1-[(1S)-2-hydroxy-2-methyl-1-phenylpropyl]-3-{3-[(2,2,2-trifluoro-1-methylethyl)-amino]-1H-pyrazolo[4,3-c]-pyridin-6-yl}urea]
30 | 0.4 | CCNc1n[nH]c2cc(NC(=O)N[C@@H](c3ccc(F)cc3)C(C)(C)O)ncc12 [Example 448, 1-[3-(ethylamino)-1H-pyrazolo[4,3-c]pyridin-6-yl]-3-[(1S)-1-(4-fluorophenyl)-2-hydroxy-2-methylpropyl]urea]
31 | 0.5 | CC(C)(O)[C@@H](NC(=O)Nc1cc2[nH]nc(N3CCOCC3)c2cn1)c1ccccc1 [Example 433, 1-[(1S)-2-hydroxy-2-methyl-1-phenylpropyl]-3-(3-morpholin-4-yl-1H-pyrazolo[4,3-c]-pyridin-6-yl)urea]
32 | 0.9 | COC[C@@H](NC(=O)Nc1cc2[nH]nc(NCC(F)(F)F)c2cn1)c1ccccc1 [Example 342, 1-[(1S)-2-methoxy-1-phenylethyl]-3-{3-[(2,2,2-trifluoro-ethyl)amino]-1H-pyrazolo[4,3-c]-pyridin-6-yl}urea]
33 | 1.1 | CCNc1n[nH]c2cc(NC(=O)NC(c3ccc(F)cc3)C(C)(C)O)ncc12 (stereo not drawn) [Example 429, 1-[3-(ethylamino)-1H-pyrazolo[4,3-c]pyridin-6-yl]-3-[1-(4-fluorophenyl)-2-hydroxy-2-methylpropyl]urea]
34 | 1 | COC1CCN(c2n[nH]c3cc(NC(=O)N[C@H](COC(F)F)c4ccccc4)ncc23)CC1 [Example 426, 1-[(1S)-2-(difluoromethoxy)-1-phenylethyl]-3-[3-(4-methoxy-piperidin-1-yl)-1H-pyrazolo[4,3-c]-pyridin-6-yl]urea]
35 | 0.4 | CC(C)(O)[C@@H](NC(=O)Nc1cc2[nH]nc(N3CCC(F)(F)CC3)c2cn1)c1ccccc1 [Example 366, 1-[3-(4,4-difluoropiperidin-1-yl)-1H-pyrazolo[4,3-c]pyridin-6-yl]-3-[(1S)-2-hydroxy-2-methyl-1-phenylpropyl]urea]
36 | 7.8 | CNc1n[nH]c2cc(NC(=O)N[C@H](C)c3ccc(Cl)cc3)ncc12 [Example 343, 1-[(1R)-1-(4-chlorophenyl)ethyl]-3-[3-(methyl-amino)-1H-pyrazolo[4,3-c]-pyridin-6-yl]urea]
